# Values of other authors, collected in patent US20100173381A1, “CRYSTAL STRUCTURES OF HIV-1 PROTEASE INHIBITORS BOUND TO HIV-1 PROTEASE” (UNIVERSITY OF MASSACHUSETTS, priority 2006, published 2010).
# Tests used:
# HIV-1 protease = HIV-1 protease (Human immunodeficiency virus type 1 group M subtype B, UniProt P04585)
# [1] = tested on: the virus in cell cultures
# [2] = humans
# HIV-1 protease mutants = details: M46I, T80I, P81S
# drug-resistant HIV-1 = details: versus clinical protease inhibitors APV, LPV, ATV, SQV, IDV, NFV
Compound,inhibitory properties (HIV-1 protease),potency against the virus in cell cultures [1],oral bioavailability [2],resistance of quadruple-viral mutant (HIV-1 protease mutants; K45R),"resistance of single-, double- or triple-viral mutants (HIV-1 protease mutants; mutants from K45R)",cross-resistance profile (drug-resistant HIV-1),potency against drug-resistant proteases (drug-resistant proteases)
Nc1cccc(CN2C(=O)N(Cc3cccc(N)c3)[C@H](Cc3ccccc3)[C@H](O)[C@@H](O)[C@H]2Cc2ccccc2)c1 [DMP-450],excellent inhibitory properties,highly potent,orally bioavailable,,,,
COC(=O)N[C@H](C(=O)NCCCC[C@@H](CO)N(CC(C)C)S(=O)(=O)c1ccc(N)cc1)C(c1ccccc1)c1ccccc1 [PL-100],,,,only mild resistance,did not show resistance,favorable cross-resistance profile,highly potent
